Data: patent publication US20200179488A1, “Secretin Receptor Agonists to Treat Diseases or Disorders of Energy Homeostasis” (Technische Universität München, priority 2016, published 2020)

Tests used:
UCP1 expression = assay: UCP1 mRNA expression (qRT-PCR) in primary adipocytes from interscapular brown adipose tissue; assay type: cell-based, Mus musculus; conditions: 0.1 μM secretin or 0.5 μM isoproterenol, 6 hours, normalized to TFIIB (FIG. 4B)
Procedure: For culturing primary adipocytes male 129S1/SvImJ mice ([…] or UCP1-KO mice and wildtype littermates) at the age of 5-6 weeks were used for the dissection of inguinal and epidydimal white adipose tissue and interscapular brown adipose tissue depots. The tissue was carefully minced and treated with collagenase for 45 min at 37° C. The homogenate was filtered through a 250 μm nylon mesh and centrifuged at 500 g to collect the stromal vascular fraction (SVF). The SVF cell pellet was rinsed and seeded into XF96 V3-PS cell culture microplate (Seahorse Bioscience). After reaching confluency, induction medium containing 10% fetal bovine serum (FBS), 0.5 mM isobutylmethylxanthine, 125 nM indomethacin, 1 mM dexamethasone, 850 nM insulin and 1 nM T3 was added. […] Respiration was measured on day 7 of differentiation. […] RNA was eluted in 50 μl nuclease-free water and RNA concentration was determined spectrophotometrically (Infinite 200 PRO NanoQuant, Tecan, Männedorf/Switzerland). Reverse transcription into cDNA was performed with 500 ng RNA in a final volume of 10 μl (Quantitect Reverse Transcription Kit, Quiagen, Hilden/Germany). qRT-PCR was conducted on 384 well plates in a total volume of 12.5 μl comprising 6.25 μl SensiMix SYBR No-ROX (Bioline, London/UK), 250 nM forward and reverse primers, and 1 μl template cDNA (LightCycler 480 System, Roche Diagnostics, Rotkreuz/Switzerland). […]

primary brown adipocytes = assay: Microplate respirometry (oxygen consumption rate) in differentiated primary brown adipocytes of wildtype mice; assay type: cell-based, Mus musculus; conditions: for stimulation of UCP1-mediated thermogenesis (uncoupled respiration): SCT 10 nM, ISO 500 nM, N=5 (FIG. 10A)
Procedure: For culturing primary adipocytes male 129S1/SvImJ mice ([…] or UCP1-KO mice and wildtype littermates) at the age of 5-6 weeks were used for the dissection of inguinal and epidydimal white adipose tissue and interscapular brown adipose tissue depots. The tissue was carefully minced and treated with collagenase for 45 min at 37° C. The homogenate was filtered through a 250 μm nylon mesh and centrifuged at 500 g to collect the stromal vascular fraction (SVF). The SVF cell pellet was rinsed and seeded into XF96 V3-PS cell culture microplate (Seahorse Bioscience). After reaching confluency, induction medium containing 10% fetal bovine serum (FBS), 0.5 mM isobutylmethylxanthine, 125 nM indomethacin, 1 mM dexamethasone, 850 nM insulin and 1 nM T3 was added. After 2 days of induction, cells were maintained in differentiation media (10% FBS, 850 nM insulin and 1 nM T3). Medium was changed every two days. Respiration was measured on day 7 of differentiation. For determination of mRNA levels cells were stimulated at the 7th day of differentiation for 6 hours with secretin (rat, Tocris, Art Nr 1919) or isoproterenol (Sigma-Aldrich, Art Nr. 16504-100MG) and harvested subsequently. Oxygen consumption rate (OCR) was measured at 37° C. using a microplate respirometer (XF96 extracellular flux analyzer, Seahorse Bioscience). At day 7, the differentiation medium was replaced with prewarmed, unbuffered assay medium (DMEM basal medium supplemented with 25 mM glucose, 2 mM sodium pyruvate, 31 mM NaCl, 2 mM GlutaMax and 15 mg/l phenol red, pH 7.4) containing 2% of essentially fatty acid free bovine serum albumin (BSA), and incubated at 37° C. in a room air incubator for 1 h. Basal respiration was measured in untreated cells. Coupled respiration was inhibited by oligomycin treatment (5 μM). […] Maximum respiratory capacity was assessed after FCCP (Sigma-Aldrich) addition (1 μM). Finally, mitochondrial respiration was blocked by antimycin A (Sigma-Aldrich) (5 μM) treatment and the residual OCR was considered to be due to non-mitochondrial reactions. Oxygen consumption rates were calculated using the Seahorse XF-96 software. Data were exported and reconstructed in GraphPad Prism 4.0 software. For each condition the lowest OCR after antimycin A addition was subtracted from all other values. Respiration rates following oligomycin addition were defined as basal OCR. For induction of OCR by isoproterenol, secretin or FCCP the highest values measured after addition of the respective molecule was used. The “OCR in % of basal OCR” and “OCR in % of FCCP OCR” were calculated as follows: Method: To test whether SCT can activate thermogenesis in brown adipocytes, we measured UCP1-mediated uncoupled respiration in cultured adherent intact primary brown adipocytes, according to a protocol recently established in our lab (Li Y, Fromme T, Schweizer S, Schöttl T, Klingenspor M. EMBO Rep. 2014 October; 15(10):1069-76. doi: 10.15252/embr.201438775; […]. Meaningful respirometric measurements of UCP1-mediated thermogenesis. Biochimie. 2017 March; 134:56-61. doi: 10.1016/j.biochi.2016.12.005.). The cellular oxygen consumption rate (OCR) of primary adipocytes was determined using an XF96 Extracellular Flux Analyzer (Seahorse Bioscience). Briefly, primary adipocytes were cultured and differentiated in XF96 microplates. At day 7 of differentiation, cells were washed once with prewarmed, unbuffered assay medium (DMEM basal medium supplemented with 25 mM glucose, 31 mM NaCl, 2 mM GlutaMax and 15 mg/l phenol red, pH 7.4) (basal assay medium) and then the medium was replaced with basal assay medium containing 1-2% essentially fatty acid free bovine serum albumin (BSA), and incubated at 37° C. in a room air incubator for 1 h. The drug injections ports of the sensor cartridges were loaded with the assay reagents at 10× in basal assay medium (no BSA). All respiration assays were performed in the presence of bovine serum albumin to buffer free fatty acid levels in the respiration medium. […]

secretin
UCP1 mRNA expression in brown adipocytes versus PBS (UCP1 expression): significantly increased the expression of the UCP1 gene
increase of OCR above basal OCR (primary brown adipocytes; 0.5 μM, after oligomycin, day 7 of differentiation (FIG. 2B)): about 200%
uncoupled OCR as share of maximal uncoupled OCR induced by FCCP (primary brown adipocytes; 0.5 μM, day 7 of differentiation (FIG. 2C)): about 75%
induction of oxygen consumption in cells from wildtype control mice (primary brown adipocytes; 129/S1 background, FIG. 3): increase in oxygen consumption
stimulation of UCP1-mediated thermogenesis (uncoupled respiration) (primary brown adipocytes): activate UCP1-dependent thermogenesis
stimulation of UCP1-mediated thermogenesis (uncoupled respiration) (primary brown adipocytes; listed as SCT): as potent as ISO (500 nM)
dose dependence and potency of activation of uncoupled respiration (primary brown adipocytes; compared to isoproterenol, data not shown): dose-dependent with a higher potency at lower concentrations as compared to isoproterenol
